Patent US6737383B1, “Herbicidal oxadiazolidines” (priority 1999, dated 2004)

Tests used:
morningglory = assay: Test B pre/postemergence morningglory; assay type: in vivo, Ipomoea hederacea
In short: (§1)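 Test chemicals in a non-phytotoxic solvent mixture with surfactant were sprayed preemergence onto planted seeds and postemergence onto plants 2 to 18 cm tall (1- to 4-leaf stage). After twelve to sixteen days in a greenhouse, injury was visually rated against untreated controls from 0 (no effect) to 10 (complete control).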

pigweed = assay: Test B pre/postemergence pigweed; assay type: in vivo, Amaranthus retroflexus
In short: as §1

wheat = assay: Test B pre/postemergence wheat; assay type: in vivo, Triticum aestivum
In short: as §1

soybean = assay: Test B pre/postemergence soybean; assay type: in vivo, Glycine max
In short: as §1

cocklebur = assay: Test B pre/postemergence cocklebur; assay type: in vivo, Xanthium strumarium
In short: as §1

bamyardgrass = assay: Test B flood test barnyardgrass; assay type: in vivo, Echinochloa crus-galli
In short: (§2)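 Each value is a visual injury score relative to controls, with 10 meaning complete control and 0 no effect. Evaluation took place twelve to sixteen days after the 2-leaf-stage plants were treated and kept in the greenhouse.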

bedstraw = assay: Test B pre/postemergence bedstraw; assay type: in vivo, Galium aparine
In short: as §1

blackgrass = assay: Test B pre/postemergence blackgrass; assay type: in vivo, Alopecurus myosuroides
In short: as §1

corn = assay: Test B pre/postemergence corn; assay type: in vivo, Zea mays
In short: as §1

wild oat = assay: Test B pre/postemergence wild oat; assay type: in vivo, Avena fatua
In short: as §1

duck salad = assay: Test B flood test duck salad; assay type: in vivo, Heteranthera limosa
In short: as §2

smallflower flatsedge = assay: Test B flood test smallflower flatsedge; assay type: in vivo, Cyperus difformis
In short: as §2

surinam grass = assay: Test B pre/postemergence surinam grass; assay type: in vivo, Brachiaria decumbens
In short: as §1

purple nutsedge = assay: Test B pre/postemergence purple nutsedge; assay type: in vivo, Cyperus rotundus
In short: as §1

giant foxtail = assay: Test B pre/postemergence giant foxtail; assay type: in vivo, Setaria faberii
In short: as §1

rice = assay: Test B flood test rice; assay type: in vivo, Oryza sativa
In short: as §2

sugar beet = assay: Test B pre/postemergence sugar beet; assay type: in vivo, Beta vulgaris
In short: as §1

rape = assay: Test B pre/postemergence rape; assay type: in vivo, Brassica napus
In short: as §1

velvetleaf = assay: Test B pre/postemergence velvetleaf; assay type: in vivo, Abutilon theophrasti
In short: as §1

crabgrass = assay: Test B pre/postemergence crabgrass; assay type: in vivo, Digitaria sanguinalis
In short: as §1

[1] = Postemergence, Rate 62 g/ha, scale 0 to 10, 0 is no effect, 10 is complete control
[2] = Postemergence, Rate 125 g/ha, scale of 0 to 10 where 0 is no effect and 10 is complete control
[3] = Postemergence, Rate 250 g/ha, scale of 0 to 10, 0 is no effect, 10 is complete control
[4] = Postemergence, Rate 500 g/ha, scale of 0 to 10 where 0 is no effect and 10 is complete control
[5] = Preemergence, Rate 62 g/ha, scale 0 to 10 (0 no effect, 10 complete control)
[6] = Preemergence, Rate 125 g/ha, scale of 0 to 10 where 0 is no effect and 10 is complete control
[7] = Preemergence, Rate 250 g/ha, scale 0 to 10 (0 no effect, 10 complete control)
[8] = Preemergence, Rate 500 g/ha, scale of 0 to 10 where 0 is no effect and 10 is complete control
[9] = Rate 62 g/ha, flood test species, Pre-emergence, visual evaluation after twelve to sixteen days
[10] = Rate 125 g/ha, under heading Pre-emergence, flood test species, visual evaluation after twelve to sixteen days
[11] = Rate 250 g/ha, Pre-emergence (flood test species), scale 0 to 10, 0 is no effect, 10 is complete control
[12] = Rate 500 g/ha, Pre-emergence section of Table B, 0 to 10 scale (0 no effect, 10 complete control)

COCCn1c(=O)on(C(=O)N(c2ccc(F)cc2F)C(C)C)c1=O [Compound 628]
9: Redroot pigweed plant response rating (pigweed; [6]) | Plant response rating, Redroot pigweed (pigweed; [7]) | Blackgrass plant response rating (blackgrass; [3]) | Plant response rating, Blackgrass (blackgrass; [4]) | Blackgrass plant response rating (blackgrass; [6]) | Plant response rating, Corn (corn; [8]) | Plant response rating, Nutsedge (purple nutsedge; [8]) | Plant response rating, Giant foxtail (giant foxtail; [2]) | Giant foxtail plant response rating (giant foxtail; [3]) | Plant response rating, Giant foxtail (giant foxtail; [4]) | Plant response rating, Rape (rape; [8]) | Plant response rating, Velvetleaf (velvetleaf; [7]) | Crabgrass plant response rating (crabgrass; [3]) | Plant response rating, Crabgrass (crabgrass; [4]) | Plant response rating, Crabgrass (crabgrass; [7])
2: Plant response rating, Morningglory (morningglory; [2]) | Morningglory plant response rating (morningglory; [3]) | Plant response rating, Morningglory (morningglory; [4]) | Cocklebur plant response rating (cocklebur; [5]) | Wild oats plant response rating (wild oat; [6]) | Plant response rating, B. signalgrass (surinam grass; [1]) | Rape plant response rating (rape; [6])
4: Plant response rating, Wheat (wheat; [2]) | Plant response rating, Soybean (soybean; [1]) | Plant response rating, Soybean (soybean; [7]) | Plant response rating, Cocklebur (cocklebur; [7]) | Sugarbeets plant response rating (sugar beet; [6]) | Plant response rating, Rape (rape; [7])
8: Redroot pigweed plant response rating (pigweed; [5]) | Plant response rating, Blackgrass (blackgrass; [2]) | Plant response rating, Wild oats (wild oat; [7]) | Plant response rating, B. signalgrass (surinam grass; [2]) | B. signalgrass plant response rating (surinam grass; [3]) | Plant response rating, B. signalgrass (surinam grass; [4]) | Plant response rating, B. signalgrass (surinam grass; [7]) | Plant response rating, Giant foxtail (giant foxtail; [1]) | Velvetleaf plant response rating (velvetleaf; [3]) | Plant response rating, Crabgrass (crabgrass; [1]) | Crabgrass plant response rating (crabgrass; [5]) | Crabgrass plant response rating (crabgrass; [6])
5: Morningglory plant response rating (morningglory; [5]) | Morningglory plant response rating (morningglory; [6]) | Plant response rating, Morningglory (morningglory; [7]) | Wild oats plant response rating (wild oat; [3])
1: Plant response rating, Morningglory (morningglory; [1]) | Plant response rating, Cocklebur (cocklebur; [2])
3: Plant response rating, Redroot pigweed (pigweed; [1]) | Plant response rating, Redroot pigweed (pigweed; [2]) | Wheat plant response rating (wheat; [5]) | Wheat plant response rating (wheat; [6]) | Cocklebur plant response rating (cocklebur; [6]) | Corn plant response rating (corn; [5]) | Plant response rating, Wild oats (wild oat; [2]) | B. signalgrass plant response rating (surinam grass; [5]) | Nutsedge plant response rating (purple nutsedge; [5]) | Sugarbeets plant response rating (sugar beet; [3]) | Sugarbeets plant response rating (sugar beet; [5]) | Rape plant response rating (rape; [3])
10: Plant response rating, Redroot pigweed (pigweed; [8]) | Plant response rating, Wheat (wheat; [8]) | Plant response rating, Bedstraw (bedstraw; [7]) | Plant response rating, Bedstraw (bedstraw; [8]) | Plant response rating, Blackgrass (blackgrass; [7]) | Plant response rating, Blackgrass (blackgrass; [8]) | Plant response rating, Wild oats (wild oat; [8]) | Plant response rating, B. signalgrass (surinam grass; [8]) | Giant foxtail plant response rating (giant foxtail; [5]) | Giant foxtail plant response rating (giant foxtail; [6]) | Plant response rating, Giant foxtail (giant foxtail; [7]) | Plant response rating, Giant foxtail (giant foxtail; [8]) | Plant response rating, Velvetleaf (velvetleaf; [8]) | Plant response rating, Crabgrass (crabgrass; [8])
0: Plant response rating, Wheat (wheat; [1]) | Soybean plant response rating (soybean; [5]) | Soybean plant response rating (soybean; [6]) | Plant response rating, Cocklebur (cocklebur; [1]) | Plant response rating, Barnyardgrass (0 to 10 scale, 0 is no effect, 10 is complete control) (bamyardgrass; [9]) | Barnyardgrass plant response rating (0 to 10 scale, 0 is no effect, 10 is complete control) (bamyardgrass; [10]) | Barnyardgrass plant response rating (bamyardgrass; [11]) | Barnyardgrass plant response rating (bamyardgrass; [12]) | Plant response rating, Bedstraw (bedstraw; [1]) | Plant response rating, Corn (corn; [1]) | Plant response rating, Wild oats (wild oat; [1]) | Plant response rating, Ducksalad (0 to 10 scale, 0 is no effect, 10 is complete control) (duck salad; [9]) | Ducksalad plant response rating (0 to 10 scale, 0 is no effect, 10 is complete control) (duck salad; [10]) | Ducksalad plant response rating (duck salad; [11]) | Ducksalad plant response rating (duck salad; [12]) | Plant response rating, S. Flatsedge (0 to 10 scale, 0 is no effect, 10 is complete control) (smallflower flatsedge; [9]) | S. Flatsedge plant response rating (0 to 10 scale, 0 is no effect, 10 is complete control) (smallflower flatsedge; [10]) | S. Flatsedge plant response rating (smallflower flatsedge; [11]) | S. Flatsedge plant response rating (smallflower flatsedge; [12]) | Plant response rating, Nutsedge (purple nutsedge; [1]) | Plant response rating, Rice (0 to 10 scale, 0 is no effect, 10 is complete control) (rice; [9]) | Rice plant response rating (0 to 10 scale, 0 is no effect, 10 is complete control) (rice; [10]) | Rice plant response rating (rice; [11]) | Rice plant response rating (rice; [12]) | Plant response rating, Sugarbeets (sugar beet; [1]) | Plant response rating, Sugarbeets (sugar beet; [2]) | Plant response rating, Rape (rape; [1]) | Plant response rating, Rape (rape; [2]) | Rape plant response rating (rape; [5])
6: Cocklebur plant response rating (cocklebur; [3]) | Bedstraw plant response rating (bedstraw; [5]) | Plant response rating, Blackgrass (blackgrass; [1]) | Blackgrass plant response rating (blackgrass; [5]) | Plant response rating, Corn (corn; [2]) | Corn plant response rating (corn; [6]) | Nutsedge plant response rating (purple nutsedge; [6]) | Plant response rating, Nutsedge (purple nutsedge; [7]) | Plant response rating, Rape (rape; [4]) | Plant response rating, Velvetleaf (velvetleaf; [1]) | Plant response rating, Velvetleaf (velvetleaf; [2])
7: Plant response rating, Morningglory (morningglory; [8]) | Redroot pigweed plant response rating (pigweed; [3]) | Wheat plant response rating (wheat; [3]) | Plant response rating, Wheat (wheat; [7]) | Plant response rating, Soybean (soybean; [8]) | Plant response rating, Cocklebur (cocklebur; [4]) | Plant response rating, Cocklebur (cocklebur; [8]) | Bedstraw plant response rating (bedstraw; [6]) | Corn plant response rating (corn; [3]) | Plant response rating, Corn (corn; [4]) | Plant response rating, Corn (corn; [7]) | B. signalgrass plant response rating (surinam grass; [6]) | Plant response rating, Sugarbeets (sugar beet; [7]) | Plant response rating, Sugarbeets (sugar beet; [8]) | Velvetleaf plant response rating (velvetleaf; [5])
